Reference: patent publication US20190380978A1, “SOLID ORAL DOSAGE FORMS OF 2R,6R-HYDROXYNORKETAMINE OR DERIVATIVES THEREOF” (priority 2016, published 2019)

Assays:
MAO-B = MAO-B (Homo sapiens, UniProt P27338); experiment: binding to monoamine oxidase B
Description: (§1) 2R,6R-hydroxynorketamine was investigated for binding to monoamine oxidases A and B, monoamine transporters, as well as a variety of 5HT receptors.

[1] = system: cryopreserved hepatocytes; experiment: in vitro hepatocyte stability assay, human; format: in vitro ADME
Protocol: 2R,6R-hydroxynorketamine was investigated using an in vitro hepatocyte stability assay, during which 2R,6R-hydroxynorketamine was incubated with cryopreserved hepatocytes from 3 test species.

UGT2B7 = UGT2B7 (Homo sapiens, UniProt P16662); experiment: UGT inhibition assay, UGT2B7; format: in vitro ADME
Chain of UGT2B7 (P16662 24-529): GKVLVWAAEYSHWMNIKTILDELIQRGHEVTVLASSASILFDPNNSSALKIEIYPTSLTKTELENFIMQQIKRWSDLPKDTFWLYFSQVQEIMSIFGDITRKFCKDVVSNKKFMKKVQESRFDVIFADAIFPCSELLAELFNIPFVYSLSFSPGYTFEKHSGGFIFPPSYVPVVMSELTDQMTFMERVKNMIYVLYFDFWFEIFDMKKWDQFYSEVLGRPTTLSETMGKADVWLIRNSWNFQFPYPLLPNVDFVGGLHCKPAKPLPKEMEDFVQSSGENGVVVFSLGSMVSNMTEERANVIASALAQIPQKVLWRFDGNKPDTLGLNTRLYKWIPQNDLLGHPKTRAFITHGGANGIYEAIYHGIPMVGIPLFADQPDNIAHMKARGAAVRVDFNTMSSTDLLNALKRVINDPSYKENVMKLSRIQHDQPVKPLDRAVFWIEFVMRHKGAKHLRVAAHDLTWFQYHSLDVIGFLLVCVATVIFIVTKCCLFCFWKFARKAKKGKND

CYP2C9 = CYP2C9 (Homo sapiens, UniProt P11712); experiment: CYP inhibition assay, CYP2C9; format: in vitro ADME
Chain of CYP2C9 (P11712 whole entry): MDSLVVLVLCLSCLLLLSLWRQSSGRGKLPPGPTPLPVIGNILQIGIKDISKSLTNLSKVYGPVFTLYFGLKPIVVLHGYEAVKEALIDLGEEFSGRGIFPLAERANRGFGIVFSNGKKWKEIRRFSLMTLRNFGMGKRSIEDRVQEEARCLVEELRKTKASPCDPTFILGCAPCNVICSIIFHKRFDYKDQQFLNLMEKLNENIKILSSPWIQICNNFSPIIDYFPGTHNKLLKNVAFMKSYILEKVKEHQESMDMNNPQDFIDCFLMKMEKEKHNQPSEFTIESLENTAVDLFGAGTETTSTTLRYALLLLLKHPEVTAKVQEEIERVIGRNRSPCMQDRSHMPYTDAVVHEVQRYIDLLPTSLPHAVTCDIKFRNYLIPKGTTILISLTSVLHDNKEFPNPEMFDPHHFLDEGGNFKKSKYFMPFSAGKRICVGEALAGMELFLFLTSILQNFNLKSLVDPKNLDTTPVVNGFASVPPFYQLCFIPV
Description: (§2) Cytochrome P450s (CYPs) are a family of enzymes that play a primary role in the metabolism of a wide variety of drugs. 2R,6R-hydroxynorketamine was investigated for its potential to inhibit the action of 7 key CYP enzymes using an inhibition assay measuring reduction in the formation of metabolites compared to control.

CYP2C8 = target: T1, CYP2C8 (Homo sapiens, UniProt P10632); experiment: CYP inhibition assay, CYP2C8; format: in vitro ADME
T1 sequence (P10632 1-490): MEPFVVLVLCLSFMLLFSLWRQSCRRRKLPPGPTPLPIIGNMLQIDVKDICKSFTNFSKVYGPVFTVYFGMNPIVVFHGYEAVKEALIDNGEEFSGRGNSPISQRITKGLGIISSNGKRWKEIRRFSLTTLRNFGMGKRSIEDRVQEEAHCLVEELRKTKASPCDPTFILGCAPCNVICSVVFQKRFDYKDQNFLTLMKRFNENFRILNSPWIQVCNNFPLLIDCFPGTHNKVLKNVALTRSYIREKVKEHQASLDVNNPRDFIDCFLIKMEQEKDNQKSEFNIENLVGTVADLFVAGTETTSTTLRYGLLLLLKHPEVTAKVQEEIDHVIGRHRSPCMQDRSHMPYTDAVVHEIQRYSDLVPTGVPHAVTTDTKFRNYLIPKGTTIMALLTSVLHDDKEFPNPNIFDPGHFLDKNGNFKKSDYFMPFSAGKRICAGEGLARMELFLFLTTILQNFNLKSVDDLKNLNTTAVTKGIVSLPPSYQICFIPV
Description: as §2

CYP3A4 = CYP3A4 (Homo sapiens, UniProt P08684); experiment: CYP inhibition assay, CYP3A4 (substrates midazolam and testosterone); format: in vitro ADME; settings: for inhibition at 0.4 µM / inhibition at 1 µM / inhibition at 4 µM / inhibition at 10 µM / inhibition at 40 µM / inhibition at 100 µM: human
Chain of CYP3A4 (P08684 whole entry): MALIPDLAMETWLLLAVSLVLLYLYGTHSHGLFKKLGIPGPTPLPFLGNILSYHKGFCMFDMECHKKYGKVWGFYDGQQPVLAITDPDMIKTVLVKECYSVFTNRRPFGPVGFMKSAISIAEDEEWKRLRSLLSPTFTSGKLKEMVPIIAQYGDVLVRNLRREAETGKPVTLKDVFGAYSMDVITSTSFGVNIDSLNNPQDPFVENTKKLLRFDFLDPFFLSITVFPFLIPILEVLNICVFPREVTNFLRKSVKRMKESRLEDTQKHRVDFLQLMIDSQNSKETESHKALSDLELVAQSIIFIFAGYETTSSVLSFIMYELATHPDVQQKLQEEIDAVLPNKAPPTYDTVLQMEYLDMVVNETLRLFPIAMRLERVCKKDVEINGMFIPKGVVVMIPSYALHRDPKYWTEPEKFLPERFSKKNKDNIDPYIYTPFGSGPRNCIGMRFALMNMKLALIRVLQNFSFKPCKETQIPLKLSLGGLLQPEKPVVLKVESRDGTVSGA
Description: as §2

5-HT2B = 5-HT2B (Homo sapiens, UniProt P41595); experiment: binding to 5-HT2B receptor
Chain of 5-HT2B (P41595 whole entry, species assumed): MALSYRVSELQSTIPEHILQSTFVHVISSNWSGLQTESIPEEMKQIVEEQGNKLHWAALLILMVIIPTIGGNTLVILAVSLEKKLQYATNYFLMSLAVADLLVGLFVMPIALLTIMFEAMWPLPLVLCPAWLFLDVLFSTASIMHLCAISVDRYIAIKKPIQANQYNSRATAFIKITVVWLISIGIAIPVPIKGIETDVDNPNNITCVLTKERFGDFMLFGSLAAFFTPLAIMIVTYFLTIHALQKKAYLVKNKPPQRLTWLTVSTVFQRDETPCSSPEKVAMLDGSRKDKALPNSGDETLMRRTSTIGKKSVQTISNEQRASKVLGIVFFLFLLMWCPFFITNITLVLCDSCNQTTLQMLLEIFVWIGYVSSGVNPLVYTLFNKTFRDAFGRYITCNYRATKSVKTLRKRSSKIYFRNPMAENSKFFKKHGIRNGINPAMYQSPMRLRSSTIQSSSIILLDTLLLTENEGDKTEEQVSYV
Description: as §1

5-HT2A = 5-HT2A (Homo sapiens, UniProt P28223); experiment: binding to 5-HT2A receptor
Chain of 5-HT2A (P28223 whole entry): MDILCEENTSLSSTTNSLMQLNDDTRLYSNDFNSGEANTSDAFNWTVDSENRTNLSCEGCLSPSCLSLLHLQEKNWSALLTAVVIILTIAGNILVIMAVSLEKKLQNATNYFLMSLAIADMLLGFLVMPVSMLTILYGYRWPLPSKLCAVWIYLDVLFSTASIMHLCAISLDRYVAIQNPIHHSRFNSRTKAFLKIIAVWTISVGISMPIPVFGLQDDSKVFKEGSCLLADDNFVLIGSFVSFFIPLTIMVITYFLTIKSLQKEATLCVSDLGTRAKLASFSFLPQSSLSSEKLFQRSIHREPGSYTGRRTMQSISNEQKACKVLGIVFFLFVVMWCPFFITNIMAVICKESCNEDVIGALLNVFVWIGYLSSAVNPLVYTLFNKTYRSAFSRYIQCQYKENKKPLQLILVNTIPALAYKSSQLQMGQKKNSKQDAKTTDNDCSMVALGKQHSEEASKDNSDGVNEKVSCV
Description: as §1

UGT1A1 = target: T2, UGT1A1 (Homo sapiens, UniProt P22309); experiment: UGT inhibition assay, UGT1A1; format: in vitro ADME
T2 sequence (P22309 26-533): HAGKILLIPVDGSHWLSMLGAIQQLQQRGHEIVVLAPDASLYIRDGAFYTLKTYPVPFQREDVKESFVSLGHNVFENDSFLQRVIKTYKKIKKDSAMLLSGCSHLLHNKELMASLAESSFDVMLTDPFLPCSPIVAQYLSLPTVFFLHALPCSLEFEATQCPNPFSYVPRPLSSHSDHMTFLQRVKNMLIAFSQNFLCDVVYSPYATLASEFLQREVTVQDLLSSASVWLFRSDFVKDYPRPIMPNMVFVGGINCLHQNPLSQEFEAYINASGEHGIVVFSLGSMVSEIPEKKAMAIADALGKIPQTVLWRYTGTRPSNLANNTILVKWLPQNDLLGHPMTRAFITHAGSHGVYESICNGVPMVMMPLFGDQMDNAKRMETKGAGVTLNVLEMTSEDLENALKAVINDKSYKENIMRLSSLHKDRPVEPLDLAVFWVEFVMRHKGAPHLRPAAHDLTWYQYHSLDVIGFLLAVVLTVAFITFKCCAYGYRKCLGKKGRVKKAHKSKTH
Description: 2R,6R-hydroxynorketamine was therefore investigated for its potential to inhibit this isozyme, along with that of the major UGT isozyme, UGT1A1, using a UGT inhibition assay.

5-HT1, Non-Selective = experiment: binding to 5-HT1 receptors, non-selective
Description: as §1
An absence of interaction between 2R,6R-hydroxynorketamine and 5HT1 receptors is also of note. Rare postmarketing reports have described patients with weakness, hyperreflexia, and incoordination following the use of an SSRI and the 5HT1 agonist, sumatriptan. The possibility of such interactions should also be considered if other 5HT1 agonists are to be used in combination with SSRIs.

CYP2C19 = CYP2C19 (Homo sapiens, UniProt P33261); experiment: CYP inhibition assay, CYP2C19; format: in vitro ADME
Chain of CYP2C19 (P33261 whole entry): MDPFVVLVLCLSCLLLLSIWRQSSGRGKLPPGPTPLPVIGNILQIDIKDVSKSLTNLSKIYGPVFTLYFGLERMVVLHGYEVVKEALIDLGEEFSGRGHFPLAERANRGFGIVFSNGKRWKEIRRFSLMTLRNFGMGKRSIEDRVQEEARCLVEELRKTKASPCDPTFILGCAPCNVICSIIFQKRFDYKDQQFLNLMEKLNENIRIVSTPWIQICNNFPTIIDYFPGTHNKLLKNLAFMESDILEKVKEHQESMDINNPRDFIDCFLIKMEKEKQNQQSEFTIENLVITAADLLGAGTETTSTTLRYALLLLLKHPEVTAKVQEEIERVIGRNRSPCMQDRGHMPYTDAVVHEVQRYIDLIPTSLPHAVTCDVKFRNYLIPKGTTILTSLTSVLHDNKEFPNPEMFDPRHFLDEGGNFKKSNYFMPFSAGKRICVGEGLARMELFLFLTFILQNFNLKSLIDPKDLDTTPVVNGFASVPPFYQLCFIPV
Description: as §2

[2] = system: α-amino-3-hydroxy-5-methyl-4-isoxazolepropionic acid receptor (AMPAR)-mediated currents; experiment: in vitro electrophysiological experiments (fEPSPs)
Protocol: The free (unbound) concentration of 2R,6R-hydroxynorketamine producing pharmacodynamics activity in the brain is estimated to be approximately 10 μM.

[3] = probe midazolam, Substrate = midazolam
[4] = probe testosterone, Substrate = testosterone

Chain of MAO-B (P27338 whole entry, species assumed): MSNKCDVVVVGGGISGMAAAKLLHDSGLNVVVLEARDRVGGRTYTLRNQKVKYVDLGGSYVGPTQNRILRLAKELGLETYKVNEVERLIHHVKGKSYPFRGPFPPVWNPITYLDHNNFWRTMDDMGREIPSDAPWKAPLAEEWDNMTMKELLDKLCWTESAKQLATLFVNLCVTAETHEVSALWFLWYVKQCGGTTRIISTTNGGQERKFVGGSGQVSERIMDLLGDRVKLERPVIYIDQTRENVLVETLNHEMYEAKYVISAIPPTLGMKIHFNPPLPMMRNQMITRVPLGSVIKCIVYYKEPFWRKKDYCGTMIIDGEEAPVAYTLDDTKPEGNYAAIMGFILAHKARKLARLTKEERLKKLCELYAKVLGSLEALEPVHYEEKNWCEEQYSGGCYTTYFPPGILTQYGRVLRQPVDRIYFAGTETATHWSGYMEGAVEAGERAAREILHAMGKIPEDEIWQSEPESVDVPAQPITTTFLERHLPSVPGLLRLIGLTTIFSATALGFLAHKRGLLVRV

How did the “% Inhibition of Control Specific Binding” value (MAO-B) turn out when `N[C@@]1(c2ccccc2Cl)CCC[C@@H](O)C1=O` [2R,6R-hydroxynorketamine] was run?
The value was −1%.

What about the “% of Control Specific Binding” value (MAO-B) of the same compound?
Its value is 100.4%.

And the CLint ([1]; Human hepatocytes)?
The CLint was −1.07 gL/min/10^6 cells.

What about the “hepatic clearance in humans” value ([1]; human hepatocyte stability assay) of the same compound?
The value was “does not undergo hepatic clearance”.

And the “inhibition of UGT2B7” value (UGT2B7)?
The value was “does not inhibit”.

And the “inhibition of CYP2C9” value (CYP2C9)?
Its value is “did not inhibit”.

And the inhibition at 0.4 µM (CYP2C9; human, 0.4 μM)?
Its inhibition at 0.4 µM is 4.59%.

What about the inhibition at 1 µM (CYP2C9; human, 1 μM) of the same compound?
Its inhibition at 1 µM is 5.92%.

And the inhibition at 4 µM (CYP2C9; human, 4 μM)?
Its inhibition at 4 µM is 5.8%.

And the inhibition at 10 µM (CYP2C9; human, 10 μM)?
Its inhibition at 10 µM is 11.9%.

And the inhibition at 40 µM (CYP2C9; human, 40 μM)?
The inhibition at 40 µM was -0.113%.

And the inhibition at 100 µM (CYP2C9; human, 100 μM)?
Its inhibition at 100 µM is -1.33%.

What about the “inhibition of CYP2C8” value (CYP2C8) of the same compound?
The value was “did not inhibit”.

What about the inhibition at 0.4 µM (CYP2C8; human, 0.4 μM) of the same compound?
Its inhibition at 0.4 µM is 5.63%.

What about the inhibition at 1 µM (CYP2C8; human, 1 μM) of the same compound?
Its inhibition at 1 µM is 4.91%.

What about the inhibition at 4 µM (CYP2C8; human, 4 μM) of the same compound?
Its inhibition at 4 µM is 12.5%.

And the inhibition at 10 µM (CYP2C8; human, 10 μM)?
Its inhibition at 10 µM is 8.33%.

And the inhibition at 40 µM (CYP2C8; human, 40 μM)?
The inhibition at 40 µM was 8.35%.

What about the inhibition at 100 µM (CYP2C8; human, 100 μM) of the same compound?
The inhibition at 100 µM was 2.08%.

What about the inhibition at 0.4 µM (CYP3A4; [3]) of the same compound?
Its inhibition at 0.4 µM is 11.5%.

And the inhibition at 1 µM (CYP3A4; [3])?
Its inhibition at 1 µM is 8.44%.

What about the inhibition at 4 µM (CYP3A4; [3]) of the same compound?
The inhibition at 4 µM was 15.7%.

And the inhibition at 10 µM (CYP3A4; [3])?
The inhibition at 10 µM was 25.7%.

And the inhibition at 40 µM (CYP3A4; [3])?
Its inhibition at 40 µM is 43.7%.

And the inhibition at 100 µM (CYP3A4; [3])?
Its inhibition at 100 µM is 57.5%.

What about the inhibition at 0.4 µM (CYP3A4; [4]) of the same compound?
The inhibition at 0.4 µM was 1.62%.

What about the inhibition at 1 µM (CYP3A4; [4]) of the same compound?
Its inhibition at 1 µM is -0.509%.

And the inhibition at 4 µM (CYP3A4; [4])?
Its inhibition at 4 µM is 7.04%.

And the inhibition at 10 µM (CYP3A4; [4])?
Its inhibition at 10 µM is 12.4%.

What about the inhibition at 40 µM (CYP3A4; [4]) of the same compound?
Its inhibition at 40 µM is 35.2%.

And the inhibition at 100 µM (CYP3A4; [4])?
Its inhibition at 100 µM is 53.4%.

What about the IC50 (CYP3A4; substrate midazolam) of the same compound?
The IC50 was 69 µM.

What about the IC50 (CYP3A4; substrate testosterone) of the same compound?
The IC50 was 81 µM.

What about the “% Inhibition of Control Specific Binding” value (5-HT2B) of the same compound?
Its value is 5%.

What about the “% of Control Specific Binding” value (5-HT2B) of the same compound?
The value was 100.9%.

What about the “binding to 5HT2B receptor subtype” value (5-HT2B) of the same compound?
Its value is “does not bind”.

And the “% Inhibition of Control Specific Binding” value (5-HT2A)?
The value was 0%.

What about the “% of Control Specific Binding” value (5-HT2A) of the same compound?
The value was 103.8%.

What about the “binding to 5HT2A receptor subtype” value (5-HT2A) of the same compound?
The value was “does not bind”.

What about the “inhibition of UGT1A1” value (UGT1A1) of the same compound?
The value was “does not inhibit”.

And the “% Inhibition of Control Specific Binding” value (5-HT1, Non-Selective)?
Its value is −9%.

What about the “% of Control Specific Binding” value (5-HT1, Non-Selective) of the same compound?
The value was 105.4%.

What about the “binding to 5HT1 receptors” value (5-HT1, Non-Selective) of the same compound?
Its value is “does not bind”.

And the “inhibition of CYP2C19” value (CYP2C19)?
The value was “did not inhibit”.

And the inhibition at 0.4 µM (CYP2C19; human, 0.4 μM)?
Its inhibition at 0.4 µM is -2.01%.

And the inhibition at 1 µM (CYP2C19; human, 1 μM)?
The inhibition at 1 µM was -1.66%.

And the inhibition at 4 µM (CYP2C19; human, 4 μM)?
The inhibition at 4 µM was 1.85%.

What about the inhibition at 10 µM (CYP2C19; human, 10 μM) of the same compound?
Its inhibition at 10 µM is 6.69%.

And the inhibition at 40 µM (CYP2C19; human, 40 μM)?
Its inhibition at 40 µM is 8.25%.

What about the inhibition at 100 µM (CYP2C19; human, 100 μM) of the same compound?
The inhibition at 100 µM was 16.1%.

What about the “field excitatory postsynaptic potentials (fEPSPs)” value ([2]; 10 μM, in vitro electrophysiology) of the same compound?
Its value is “increase”.

And the “free (unbound) concentration producing pharmacodynamics activity in the brain” value ([2]; estimated)?
Its value is “approximately 10 μM”.

And the “substrate of p-gp or Breast Cancer Resistance Protein (BCRP) efflux transporters” value (Caco-2; Caco-2)?
The value was “not a substrate”.

What about the “permeability” value (Caco-2; Caco-2 permeability assay) of the same compound?
Its value is “high”.
